Publication PMC4074034, “Gefitinib and Luteolin Cause Growth Arrest of Human Prostate Cancer PC-3 Cells via Inhibition of Cyclin G-Associated Kinase and Induction of miR-630” (PLoS ONE, 2014)

Biological target: T1, GAK (cyclin G-associated kinase), GST-tagged human GAK (Homo sapiens, UniProt O14976)
T1 sequence (O14976 1-1311): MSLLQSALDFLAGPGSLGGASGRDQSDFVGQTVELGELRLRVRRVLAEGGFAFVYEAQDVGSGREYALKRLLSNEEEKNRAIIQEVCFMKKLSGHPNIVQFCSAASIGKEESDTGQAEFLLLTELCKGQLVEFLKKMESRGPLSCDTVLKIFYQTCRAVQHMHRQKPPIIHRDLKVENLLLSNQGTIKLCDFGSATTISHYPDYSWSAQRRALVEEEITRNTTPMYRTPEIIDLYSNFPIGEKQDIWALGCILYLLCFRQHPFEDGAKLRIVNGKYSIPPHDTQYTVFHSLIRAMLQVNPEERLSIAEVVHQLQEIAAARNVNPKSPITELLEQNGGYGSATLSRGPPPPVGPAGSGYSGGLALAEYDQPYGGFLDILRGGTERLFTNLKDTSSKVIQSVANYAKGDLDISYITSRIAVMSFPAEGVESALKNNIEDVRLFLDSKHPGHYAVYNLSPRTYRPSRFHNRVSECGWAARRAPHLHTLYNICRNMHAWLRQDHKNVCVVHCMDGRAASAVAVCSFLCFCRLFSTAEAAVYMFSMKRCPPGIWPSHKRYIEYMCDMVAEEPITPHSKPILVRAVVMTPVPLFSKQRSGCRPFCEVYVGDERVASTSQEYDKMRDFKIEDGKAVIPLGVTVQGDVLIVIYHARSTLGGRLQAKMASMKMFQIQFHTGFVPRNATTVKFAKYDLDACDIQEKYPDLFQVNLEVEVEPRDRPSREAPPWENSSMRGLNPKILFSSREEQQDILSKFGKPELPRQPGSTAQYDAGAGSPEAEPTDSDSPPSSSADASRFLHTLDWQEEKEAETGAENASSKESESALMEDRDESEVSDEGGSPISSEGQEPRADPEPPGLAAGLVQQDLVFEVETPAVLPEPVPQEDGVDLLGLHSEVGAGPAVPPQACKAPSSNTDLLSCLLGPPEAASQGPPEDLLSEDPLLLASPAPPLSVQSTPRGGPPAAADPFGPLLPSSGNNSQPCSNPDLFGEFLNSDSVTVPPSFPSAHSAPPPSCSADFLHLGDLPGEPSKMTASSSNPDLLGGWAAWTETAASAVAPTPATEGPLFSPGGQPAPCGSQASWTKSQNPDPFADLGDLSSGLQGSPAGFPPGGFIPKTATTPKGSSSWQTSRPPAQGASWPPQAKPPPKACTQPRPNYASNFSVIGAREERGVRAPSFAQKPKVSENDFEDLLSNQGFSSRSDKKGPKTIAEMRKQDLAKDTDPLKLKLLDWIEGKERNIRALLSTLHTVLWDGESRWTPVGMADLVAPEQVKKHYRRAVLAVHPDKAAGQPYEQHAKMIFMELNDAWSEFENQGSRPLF
Assay: […]-ATP in vitro kinase assay, SDS-PAGE autoradiography
Assay type: biochemical
Settings: substrate mouse PP2A B'γ fragment, also autophosphorylation, 5 µM ATP, 10 mM MgCl2, 5 mM MnCl2, pH 7.5, 30°C, 30 min

Row | Compound | intensity ratio of phosphorylated PP2A B'γ and GAK | intensity ratio of phosphorylated PP2A B'γ and GAK (10 µM compound)
1 | C[S+]([O-])c1ccc(-c2nc(-c3ccc(F)cc3)c(-c3ccncc3)[nH]2)cc1 (stereo not shown) [SB203580] | Both of these compounds inhibited GAK activity similarly | –
2 | COc1cc2ncnc(Nc3ccc(F)c(Cl)c3)c2cc1OCCCN1CCOCC1 [gefitinib] | Gefitinib inhibited GAK autophosphorylation and GAK-mediated phosphorylation of PP2A B′γ in a dose-dependent manner | –
3 | C#Cc1cccc(Nc2ncnc3cc(OCCOC)c(OCCOC)cc23)c1 [erlotinib] | Both of these compounds inhibited GAK activity similarly | –
4 | Oc1ccc(/C=C/c2cc(O)cc(O)c2)cc1 [resveratrol] | – | the same concentration of resveratrol had only a slight inhibitory effect
